Data set [1] concerns the target PDGFRα D842V (Homo sapiens, UniProt P16234, D842V). Nature of the data set: PDGFRα D842V biochemical enzymatic activity assay (EZReader 2 mobility shift). Conditions: ATP at APPKM (25 μM), 90 minutes. The text has this: (§1) PDGFRα and KIT enzymatic activity was monitored using the Perkin Elmer electrophoretic mobility shift technology platform, the EZReader 2.
(§2) Within the linear, steady-state phase of the kinase enzymatic reaction, the mixed pool of phosphorylated (product) and non-phosphorylated (substrate) peptides was passed through the microfluidic system of the PerkinElmer EZ Reader 2, under an applied electric potential difference. The presence of the phosphate group on the product peptide provided a difference in mass and charge between that of the substrate peptide, resulting in a separation of the substrate and product pools in the sample (Perrin et al., Expert Opin Drug Discovery 2010, Jan. 5(1):51-63).
(§3) As the product and substrate peptide mixture passes the lasers within the instrument, these pools are detected (λex=488 nm, λem=568 nm) and resolved as separate peaks. The ratio between these peaks reflects the activity of the compound at that concentration, in that well, under those conditions.
(§4) All test articles were dissolved in 100% DMSO at a stock concentration of 10 mM. A 100×, 10-point, 4-fold serial dilution of all test compounds was created in 100% DMSO, starting at a relevant concentration, usually 1 mM. A volume of 0.130 μL of each concentration was transferred to the relevant well of a 384-well assay plate (Greiner 781 201) using a TTPLabtech Mosquito nano-liter dispenser. Using the Multidrop, the remaining constituents of the reaction were then added to the 0.130 μL of compound as follows:
The reaction was stopped by the addition of 70 μl of Stop buffer (100 mM HEPES pH 7.5, 0.015% Brij 35, 35 mM EDTA and 0.2% of Coating Reagent 3, Caliper Lifesciences). The plate was read on a Caliper EZReader 2.

Data set [2] in a line: Brain penetration in rats, brain to plasma ratios after 24 h IV infusion. It counts as in vivo, Sprague-Dawley rats. The following applies: for Kp uu at 24 h: Sprague-Dawley, brain / plasma, intravenous, 1 mg/kg/hr; for Kp uu at 24 h / Rat Kp: Table 3B; for Rat Kp: methods as for compound 4. The text has this: To understand the brain penetration, brain to plasma ratios of the compounds were obtained in Sprague-Dawley (SD) rats. In vivo equilibrium distribution between blood and brain in preclinical species such as rats is a commonly used parameter to evaluate brain penetration. Kp,brain is the ratio of concentrations in brain and blood (Cbrain/Cplasma). The compound's passive diffusion characteristics, its affinity for membrane transporters at the blood-brain barrier (BBB), and the relative drug binding affinity differences between the plasma proteins and brain tissue influence the Kp,brain.
The animals received IV infusion of 1 mg/kg/hr of the compound over 24 hours via jugular vein cannulation. At 24 hours, blood was collected via tail vein bleeding or cardiac puncture (under anesthesia) and centrifuged to obtain plasma samples. Brain tissues were collected and homogenized with phosphate-buffered saline (PBS). The concentrations of the compounds were obtained in the plasma and brain homogenates by LC-MS/MS analysis.

Data set [3] has as its target KIT D816V (Homo sapiens, UniProt P10721, D816V). Kind of data set: KIT D816V biochemical enzymatic activity assay (EZReader 2 mobility shift). The following applies: ATP at APPKM (20 μM), 60 minutes.
Text: as §1, §2, §3, §4
The reaction was stopped by the addition of 70 μl of Stop buffer (100 mM HEPES pH 7.5, Brij 35, 35 mM EDTA and 0.2% of Coating Reagent 3, Caliper Lifesciences). The plate was read on a Caliper EZReader 2.

A short description of data set [4]: Pharmacokinetics after single intravenous and oral administration in rats. Conditions: iv 1 mg/kg, Clu=Cl/fu,plasma. It counts as in vivo, Sprague-Dawley rats. The method, then: Assessment of pharmacokinetics following single intravenous and oral administration in rats: 3 Sprague-Dawley rats were employed for each compound for each route of administration (iv or oral). For iv administration, 1 mg/kg (dose volume=5 mL/kg) of each compound was administered by intravenous route via […] injection; whereas for oral route, 2.5 mg/kg (dose volume=5 mL/kg) was administered via oral gavage. Blood samples were obtained via tail vein at predose, 0.083, 0.25, 0.5, 1, 2, 4 and 8 hr. In addition, blood samples were also obtained at 24 hr via cardiac puncture (under anesthesia with Isoflurane) for terminal bleeding. All the blood samples were analyzed for the drug concentrations via LC/MS-MS. Pharmacokinetic parameters such as Cmax, Tmax, AUClast, AUCinf, MRTlast, MRTinf, T1/2, Vss and CL were obtained by non-compartmental analysis (NCA).

For data set [5], the target named is T1, KIT D816V (HMC1.2 cells, KIT V560G and D816V) (Homo sapiens, UniProt P10721, D816V/V560G).
T1 construct: endogenous in cells; host or cells: HMC1.2 (mast cell leukemia cell line)
Kind of data set: HMC1.2 autophosphorylation assay (phospho-Y719 KIT AlphaLISA). It counts as cell-based. The following applies: 90 minutes, KIT autophosphorylation at tyrosine 719, read-out: KIT (P-KIT HMC1.2 (nM)). As to the method:
10,000 HMC1.2 cells were incubated in 22 μL culture media (phenol-red free IMDM, no serum) in each well of a 384-well plate and serum starved overnight in a tissue culture incubator (5% CO2, 37° C.). […] 10 μL of […] streptavidin donor beads (Perkin Elmer) were added to each well, blocked from light with solid black adhesive and shaken at 300 rpm at room temperature for 2 hours. Fluorescence signal was obtained on Envision (Perkin Elmer) by AlphaScreen 384 well HTS protocol.

In data set [6] the target is T2, wt KIT kinase (Homo sapiens, UniProt P10721).
T2 construct: made in house; host or cells: E. coli derived from BL21, infected with T7 phage
Nature of the data set: Wild-type KIT Kd determination (phage-tagged kinase competition binding, qPCR). The method, then: Kd Determinations. For most assays, including wt KIT kinase, kinase-tagged T7 phage strains were prepared in an E. coli host derived from the BL21 strain. E. coli were grown to log-phase and infected with T7 phage and incubated with shaking at 32° C. until lysis. […] The liganded beads were blocked with excess biotin and washed with blocking buffer (SeaBlock (Pierce), 1% BSA, 0.05% Tween 20, 1 mM DTT) to remove unbound ligand and to reduce non-specific binding. […] Test compounds were prepared as 111×stocks in 100% DMSO. Kds were determined using an 11-point 3-fold compound dilution series with three DMSO control points. […] The compounds were then diluted directly into the assays such that the final concentration of DMSO was 0.9%. All reactions were performed in polypropylene 384-well plate. Each was a final volume of 0.02 ml. […] The kinase concentration in the eluates was measured by qPCR.
Binding Constants (Kds). Binding constants (Kds) were calculated with a standard dose-response curve using the Hill equation: Response=Background+Signal−Background 1+(KdHill Slope/DoseHill Slope). The Hill Slope was set to −1. Curves were fitted using a non-linear least square fit with the Levenberg-Marquardt algorithm.
For orientation: Quantitative PCR measures a nucleic acid by following its amplification.

Where [7] appears, read: rat, fu,brain from brain slice, read-out: Rat Kp, uu Brain slice.

pIC50, pKd: −log10 of the molar value. Like-named read-outs stand apart in the source and are kept apart here. A value given as a limit tells only on which side of the number the result lay.

Chain of PDGFRα D842V (P16234 24-1089 D842V): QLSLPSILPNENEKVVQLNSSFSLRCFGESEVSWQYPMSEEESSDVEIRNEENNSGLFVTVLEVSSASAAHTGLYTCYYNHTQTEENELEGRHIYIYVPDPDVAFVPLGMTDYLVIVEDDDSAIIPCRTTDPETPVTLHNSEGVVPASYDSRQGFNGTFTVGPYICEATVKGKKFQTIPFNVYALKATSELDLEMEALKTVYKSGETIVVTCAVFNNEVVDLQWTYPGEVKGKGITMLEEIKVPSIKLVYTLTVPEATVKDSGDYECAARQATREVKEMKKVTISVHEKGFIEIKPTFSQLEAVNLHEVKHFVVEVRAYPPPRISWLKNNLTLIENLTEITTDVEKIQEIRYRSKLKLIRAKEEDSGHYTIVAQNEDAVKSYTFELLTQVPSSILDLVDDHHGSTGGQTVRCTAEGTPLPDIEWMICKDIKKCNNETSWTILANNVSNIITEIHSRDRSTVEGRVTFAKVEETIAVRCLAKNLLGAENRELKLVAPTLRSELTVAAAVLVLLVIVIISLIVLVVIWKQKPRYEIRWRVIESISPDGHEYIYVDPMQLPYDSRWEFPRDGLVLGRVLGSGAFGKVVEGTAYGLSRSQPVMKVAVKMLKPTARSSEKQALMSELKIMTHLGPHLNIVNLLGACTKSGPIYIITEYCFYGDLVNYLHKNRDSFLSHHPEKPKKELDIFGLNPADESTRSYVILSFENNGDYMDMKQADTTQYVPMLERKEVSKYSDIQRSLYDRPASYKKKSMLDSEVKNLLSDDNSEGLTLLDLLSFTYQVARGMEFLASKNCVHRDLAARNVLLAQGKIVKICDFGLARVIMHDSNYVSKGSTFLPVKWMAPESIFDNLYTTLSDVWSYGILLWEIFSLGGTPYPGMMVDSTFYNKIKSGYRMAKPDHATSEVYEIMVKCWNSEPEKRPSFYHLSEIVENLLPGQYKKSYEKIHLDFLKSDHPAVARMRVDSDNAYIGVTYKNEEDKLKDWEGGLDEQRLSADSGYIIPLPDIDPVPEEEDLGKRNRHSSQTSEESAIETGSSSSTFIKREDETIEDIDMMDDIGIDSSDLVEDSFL
Chain of KIT D816V (P10721 26-976 D816V): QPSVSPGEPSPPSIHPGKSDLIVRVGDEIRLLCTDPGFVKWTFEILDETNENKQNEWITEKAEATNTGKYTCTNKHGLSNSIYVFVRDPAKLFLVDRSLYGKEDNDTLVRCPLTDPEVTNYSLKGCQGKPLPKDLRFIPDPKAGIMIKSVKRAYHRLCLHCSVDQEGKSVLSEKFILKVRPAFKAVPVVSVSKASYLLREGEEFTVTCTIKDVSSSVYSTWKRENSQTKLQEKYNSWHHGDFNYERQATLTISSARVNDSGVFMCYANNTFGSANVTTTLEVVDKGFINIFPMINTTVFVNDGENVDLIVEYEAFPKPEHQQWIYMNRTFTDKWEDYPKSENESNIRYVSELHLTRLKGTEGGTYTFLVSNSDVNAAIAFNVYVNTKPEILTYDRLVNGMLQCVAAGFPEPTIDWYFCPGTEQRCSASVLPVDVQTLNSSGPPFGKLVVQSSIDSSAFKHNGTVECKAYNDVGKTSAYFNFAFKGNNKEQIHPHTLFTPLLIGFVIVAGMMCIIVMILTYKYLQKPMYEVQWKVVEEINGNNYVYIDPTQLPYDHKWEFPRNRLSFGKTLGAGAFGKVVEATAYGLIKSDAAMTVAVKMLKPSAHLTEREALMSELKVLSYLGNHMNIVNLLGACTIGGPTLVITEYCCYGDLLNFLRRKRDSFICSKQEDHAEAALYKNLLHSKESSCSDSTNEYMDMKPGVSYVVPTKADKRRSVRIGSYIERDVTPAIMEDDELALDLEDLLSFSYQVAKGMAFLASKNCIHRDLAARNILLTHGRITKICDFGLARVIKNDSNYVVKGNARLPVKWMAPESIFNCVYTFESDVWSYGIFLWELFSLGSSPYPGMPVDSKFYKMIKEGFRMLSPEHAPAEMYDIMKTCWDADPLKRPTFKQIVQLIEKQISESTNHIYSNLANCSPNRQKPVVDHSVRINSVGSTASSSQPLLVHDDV
T2 sequence (P10721 26-976): as the sequence (P10721 26-976 D816V) above, with V791D counted along it
T1 sequence (P10721 26-976 V560G/D816V): as the sequence (P10721 26-976 D816V) above, with V535G counted along it

The term pIC50 denotes the IC50 on a negative log10 scale, so that one unit is a factor of ten. `C[C@](N)(c1ccc(F)cc1)c1cnc(N2CCN(c3ncnn4cc(-c5cnn(CC6(O)CC6)c5)cc34)CC2)nc1` [Compound 8, (S)-1-((4-(4-(4-(5-(1-Amino-1-(4-fluorophenyl)ethyl)pyrimidin-2-yl)piperazin-1-yl)pyrrolo[2,1-f][1,2,4]triazin-6-yl)-1H-pyrazol-1-yl)methyl)cyclopropan-1-ol]: the pIC50 in data set [1] is at least 9.52.

On to `C[C@@H](CO)n1cc(-c2cc3c(N4CCN(c5ncc([C@@](C)(N)c6ccc(F)cc6)cn5)CC4)ncnn3c2)cn1` [Compound 6, (S)-2-(4-(4-(4-(5-((S)-1-amino-1-(4-fluorophenyl)ethyl)pyrimidin-2-yl)piperazin-1-yl)pyrrolo[2,1-f][1,2,4]triazin-6-yl)-1H-pyrazol-1-yl)propan-1-ol], for which the pIC50 in data set [1] is at least 9.52.

For `C[C@H](O)Cn1cc(-c2cc3c(N4CCN(c5ncc([C@@](C)(N)c6ccc(F)cc6)cn5)CC4)ncnn3c2)cn1` [Compound 7], the pIC50 in data set [1] is at least 9.52.

As to `CCn1cc(-c2cc3c(N4CCN(c5ncc([C@@](C)(N)c6ccc(F)cc6)cn5)CC4)ncnn3c2)cn1` [Comparator A, reference compound], the pIC50 in data set [1] and in data set [3] was at least 9.52 in each case. In addition, the “Unbound concentration, Brain” value in data set [2] (rat, total mean brain concentration x fu,brain (homogenate)) amounted to 1.7. In data set [2] (rat, total mean plasma concentration x fu,p), the “Unbound concentration, Plasma” value stood at 2.02.

Consider `C[C@H](CO)n1cc(-c2cc3c(N4CCN(c5ncc([C@@](C)(N)c6ccc(F)cc6)cn5)CC4)ncnn3c2)cn1` [Compound 5, (R)-2-(4-(4-(4-(5-((S)-1-Amino-1-(4-fluorophenyl)ethyl)pyrimidin-2-yl)piperazin-1-yl)pyrrolo[2,1-f][1,2,4]triazin-6-yl)-1H-pyrazol-1-yl)propan-1-ol], for which the pIC50 in data set [1] is at least 9.52.

For the compound `CC(C)(CO)n1cc(-c2cc3c(N4CCN(c5ncc([C@@](C)(N)c6ccc(F)cc6)cn5)CC4)ncnn3c2)cn1` [Compound 2, (S)-2-(4-(4-(4-(5-(1-amino-1-(4-fluorophenyl)ethyl)pyrimidin-2-yl)piperazin-1-yl)pyrrolo[2,1-f][1,2,4]triazin-6-yl)-1H-pyrazol-1-yl)-2-methylpropan-1-ol], in data set [1], the pIC50 is at least 9.52.

For the compound `C[C@](N)(c1ccc(F)cc1)c1cnc(N2CCN(c3ncnn4cc(-c5cnn(CCO)c5)cc34)CC2)nc1` [Compound 4, (S)-2-(4-(4-(4-(5-(1-Amino-1-(4-fluorophenyl)ethyl)pyrimidin-2-yl)piperazin-1-yl)pyrrolo[2,1-f][1,2,4]triazin-6-yl)-1H-pyrazol-1-yl)ethanol], the pIC50 in data set [1] is at least 9.52. Besides, the “Rat IV PK (Clu) (mL/min/kg), unbound clearance” value in data set [4] is on record as “(582) mL/min/kg”.

Turning to `CC(C)(O)Cn1cc(-c2cc3c(N4CCN(c5ncc([C@@](C)(N)c6ccc(F)cc6)cn5)CC4)ncnn3c2)cn1` [Compound 1, (S)-1-(4-(4-(4-(5-(1-Amino-1-(4-fluorophenyl)ethyl)pyrimidin-2-yl)piperazin-1-yl)pyrrolo[2,1-f][1,2,4]triazin-6-yl)-1H-pyrazol-1-yl)-2-methylpropan-2-ol], the pIC50 in data set [1] is at least 9.52.

For orientation: pKd means the negative decadic logarithm of the Kd, by convention in mol/L. Consider `C[C@](N)(c1ccc(F)cc1)c1cnc(N2CCN(c3ncnn4cc(-c5cnn([C@@H]6CC[C@H]6O)c5)cc34)CC2)nc1` (single isomer, unassigned) [Compound 11], for which the negative logarithm of the IC50 (pIC50) in data set [1] and in data set [3] was at least 9.52 in each case. Moreover, the IC50 in data set [5] is under 4.5 nM. This compound had a pKd in data set [6] of over 8.00. Moreover, the Kp uu at 24 h came to 0.06 in data set [2] (rat, fu,brain from brain homogenate, read-out: Rat Kp, uu Homogenate) and 0.03 in data set [2] (setting [7]). Further, the “Rat Kp” value in data set [2] is on record as 0.13.

With `C[C@@H](O)Cn1cc(-c2cc3c(N4CCN(c5ncc([C@@](C)(N)c6ccc(F)cc6)cn5)CC4)ncnn3c2)cn1` [Compound 3], the pIC50 in data set [1] was at least 9.52.

As for `C[C@](N)(c1ccc(F)cc1)c1cnc(N2CCN(c3ncnn4cc(-c5cnn(C6(CO)CC6)c5)cc34)CC2)nc1` [Compound 9, (S)-(1-(4-(4-(4-(5-(1-Amino-1-(4-fluorophenyl)ethyl)pyrimidin-2-yl)piperazin-1-yl)pyrrolo[2,1-f][1,2,4]triazin-6-yl)-1H-pyrazol-1-yl)cyclopropyl)methanol], the pIC50 in data set [1] was at least 9.52.

Consider `C[C@](N)(c1ccc(F)cc1)c1cnc(N2CCN(c3ncnn4cc(-c5cnn([C@H]6CC[C@@H]6O)c5)cc34)CC2)nc1` (single isomer, unassigned) [Compound 10], for which the pIC50 in data set [1] was at least 9.52; in data set [3], 9.00 to 9.51. Moreover, the IC50 in data set [5] is under 4.5 nM. In data set [6], the pKd was over 8.00. Besides, the Kp uu at 24 h in data set [2] (setting [7]) was determined as 0.07. In data set [2], the “Rat Kp” value is listed as 0.18.

The record behind these values is patent US20230391780A1, “COMPOSITIONS AND METHODS FOR TREATING KIT- AND PDGFRA-MEDIATED DISEASES” (Blueprint Medicines Corporation, priority 2020, published 2023).
